Source: US9630977B2, “Cephalosporin derivatives and pharmaceutical compositions thereof” (Legochem Biosciences, Inc., priority 2011, dated 2017)
≈ marks a conversion by molar mass, not a printed value. Where two headings read alike, the source gives them in different places.

Legend:
Assay in all cases: In vitro antibacterial activity test (broth microdilution)
Assay type in all cases: cell-based
A. baumannii 46 = test system: A. baumannii 46
Protocol: (§1) To evaluate antibacterial activity of each of the compounds of Examples 1 to 68, in vitro antibacterial activity test was performed.
(§2) The in vitro antibacterial activity was evaluated by measuring MIC90 (ug/mL) of each of the compounds of Examples 1 to 68, which is defined as the lowest concentration of an antibiotic that will inhibit the visible growth of 90% of microorganisms after incubation as compared with a control group to which the antibiotic is not treated. MIC90 values were measured by the broth microdilution method developed by the Clinical and Laboratory Standards Institute (CLSI) (see CLSI M7-A5, Methods for Dilution Antimicrobial Susceptibility Test for Bacteria that Grow Aerobically-Fifth Edition (2000): CLSI, Villanova, Pa.).
(§3) In vitro antibacterial activity was measured with respect to the following 19 clinical isolates: M. catarrhalis; P. aeruginosa (5 strains); K. pneumoniae (6 strains); A. baumannii (3 strains); E. coli (2 strains); A. calcoaceticus; and E. cloacae.
(§4) Test compounds each (the cephalosporin derivative compounds prepared in Examples 1 to 68) were dissolved in DMSO at the concentration of 10,240 ug/mL, were diluted by two fold with DMSO, and then were diluted by twenty fold with sterilized distilled water. The final concentration in the antibacterial activity test was in the range of […] to 128 ug/mL, and the final concentration of DMSO used as an adjuvant was 2.5% (V/V).

A. baumannii 49 = test system: A. baumannii 49
Protocol: as §1, §2, §3, §4

A. baumannii 52 = details: Acinetobacter baumannii
Protocol: as §1, §2, §3, §4

[1] = test system: A. calcoaceticus ATCC15473; details: Acinetobacter calcoaceticus
Protocol: as §1, §2, §3, §4

E. cloacae β19 = details: Enterobacter cloacae
Protocol: as §1, §2, §3, §4

E. coli AG100 = details: Escherichia coli
Protocol: as §1, §2, §3, §4

E. coli β4 = details: Escherichia coli
Protocol: as §1, §2, §3, §4

K. pneumoniae 2011E = details: Klebsiella pneumoniae, 2011E
Protocol: as §1, §2, §3, §4

K. pneumoniae β10 = details: Klebsiella pneumoniae
Protocol: as §1, §2, §3, §4

K. pneumoniae β11 = details: Klebsiella pneumoniae
Protocol: as §1, §2, §3, §4

K. pneumoniae β13 = details: Klebsiella pneumoniae
Protocol: as §1, §2, §3, §4

K. pneumoniae β14 = details: Klebsiella pneumoniae
Protocol: as §1, §2, §3, §4

K. pneumoniae β9 = details: Klebsiella pneumoniae
Protocol: as §1, §2, §3, §4

M. catarrhalis 2524 = details: Moraxella catarrhalis
Protocol: as §1, §2, §3, §4

P. aeruginosa 1912E = details: Pseudomonas aeruginosa, 1912E
Protocol: as §1, §2, §3, §4

P. aeruginosa 37 = details: Pseudomonas aeruginosa, 37, P. aeruginosa 37
Protocol: as §1, §2, §3, §4

P. aeruginosa 40 = test system: P. aeruginosa 40
Protocol: as §1, §2, §3, §4

P. aeruginosa 43 = details: Pseudomonas aeruginosa
Protocol: as §1, §2, §3, §4

P. aeruginosa 6065Y = details: Pseudomonas aeruginosa
Protocol: as §1, §2, §3, §4

[2] = Acinetobacter baumannii, A. baumannii 46, read-out: MIC90
[3] = Acinetobacter baumannii, A. baumannii 49, read-out: MIC90
[4] = A. baumannii 52, read-out: MIC90
[5] = A. calcoaceticus ATCC15473, read-out: MIC90
[6] = AG100, E. coli AG100, read-out: MIC90
[7] = K. pneumoniae 2011E, read-out: MIC90
[8] = K. pneumoniae β10, read-out: MIC90
[9] = K. pneumoniae β11, read-out: MIC90
[10] = K. pneumoniae β13, read-out: MIC90
[11] = K. pneumoniae β9, read-out: MIC90
[12] = M. catarrhalis 2524, read-out: MIC90
[13] = Pseudomonas aeruginosa, 40, P. aeruginosa 40, read-out: MIC90
[14] = P. aeruginosa 43, read-out: MIC90
[15] = Acinetobacter baumannii, 46, A. baumannii 46
[16] = Acinetobacter baumannii, 49, A. baumannii 49
[17] = ATCC15473, A. calcoaceticus ATCC15473

SMILES | MIC90 (A. baumannii 46; [2]) [µg/mL] | MIC90 (A. baumannii 49; [3]) [µg/mL] | MIC90 (A. baumannii 52; [4]) [µg/mL] | MIC90 [1, 5] [µg/mL] | MIC90 (E. cloacae β19; read-out: MIC90) [µg/mL] | MIC90 (E. coli AG100; [6]) [µg/mL] | MIC90 (E. coli β4; read-out: MIC90) [µg/mL] | MIC90 (K. pneumoniae 2011E; [7]) [µg/mL] | MIC90 (K. pneumoniae β10; [8]) [µg/mL] | MIC90 (K. pneumoniae β11; [9]) [µg/mL] | MIC90 (K. pneumoniae β13; [10]) [µg/mL] | MIC90 (K. pneumoniae β14; read-out: MIC90) [µg/mL] | MIC90 (K. pneumoniae β9; [11]) [µg/mL] | MIC90 (M. catarrhalis 2524; [12]) [µg/mL] | MIC90 (P. aeruginosa 1912E; read-out: MIC90) [µg/mL] | MIC90 (P. aeruginosa 37; read-out: MIC90) [µg/mL] | MIC90 (P. aeruginosa 40; [13]) [µg/mL] | MIC90 (P. aeruginosa 43; [14]) [µg/mL] | MIC90 (P. aeruginosa 6065Y; read-out: MIC90) [µg/mL] | MIC90 (A. baumannii 46; [15]) [µg/mL] | further results
C[C@H](O/N=C(\C(=O)N[C@@H]1C(=O)N2C(C(=O)[O-])=C(C[n+]3cnc(N)c(NCCNC(=O)c4cc(=O)c(O)c[nH]4)c3)CSC12)c1nc(N)sc1Cl)C(=O)O (some centres unmarked) [Compound 17] | 16 (≈ 20.6 µM) | 4 (≈ 5.14 µM) | 2 (≈ 2.57 µM) | 0.5 (≈ 0.643 µM) | 2 (≈ 2.57 µM) | 1 (≈ 1.29 µM) | 4 (≈ 5.14 µM) | 4 (≈ 5.14 µM) | 4 (≈ 5.14 µM) | 32 (≈ 41.1 µM) | 1 (≈ 1.29 µM) | 32 (≈ 41.1 µM) | 1 (≈ 1.29 µM) | 0.125 (≈ 0.161 µM) | 2 (≈ 2.57 µM) | 8 (≈ 10.3 µM) | 8 (≈ 10.3 µM) | 2 (≈ 2.57 µM) | 2 (≈ 2.57 µM) | – | –
CC(C)(O/N=C(\C(=O)N[C@@H]1C(=O)N2C(C(=O)[O-])=C(C[n+]3cnc(NCCCCN)c(NCCCCN)c3)CSC12)c1csc(N)n1)C(=O)O (some centres unmarked) [Compound 41] | – | – | – | – | – | – | – | – | – | – | – | – | – | – | – | – | – | – | – | 32 (≈ 44.5 µM) | MIC90 (A. baumannii 49; [16]): 32 µg/mL (≈ 44.5 µM); MIC90 (A. baumannii 52; 52): 32 µg/mL (≈ 44.5 µM); MIC90 [1, 17]: 1 µg/mL (≈ 1.39 µM); MIC90 (E. cloacae β19): 4 µg/mL (≈ 5.56 µM); MIC90 (E. coli AG100; AG100): 1 µg/mL (≈ 1.39 µM); MIC90 (E. coli β4): 1 µg/mL (≈ 1.39 µM); MIC90 (K. pneumoniae 2011E): 4 µg/mL (≈ 5.56 µM); MIC90 (K. pneumoniae β10): 2 µg/mL (≈ 2.78 µM); MIC90 (K. pneumoniae β11): 8 µg/mL (≈ 11.1 µM); MIC90 (K. pneumoniae β13): 2 µg/mL (≈ 2.78 µM); MIC90 (K. pneumoniae β14): 2 µg/mL (≈ 2.78 µM); MIC90 (K. pneumoniae β9): 2 µg/mL (≈ 2.78 µM); MIC90 (M. catarrhalis 2524; 2524): 0.125 µg/mL (≈ 0.174 µM); MIC90 (P. aeruginosa 1912E): 4 µg/mL (≈ 5.56 µM); MIC90 (P. aeruginosa 37): 8 µg/mL (≈ 11.1 µM); MIC90 (P. aeruginosa 40; Pseudomonas aeruginosa, 40): 4 µg/mL (≈ 5.56 µM); MIC90 (P. aeruginosa 43; 43): 128 µg/mL (≈ 178 µM); MIC90 (P. aeruginosa 6065Y; 6065Y): 16 µg/mL (≈ 22.2 µM)
CC(C)(O/N=C(\C(=O)N[C@@H]1C(=O)N2C(C(=O)[O-])=C(/C=C/C[n+]3cnc(N)c(NC(=O)CCN)c3)CSC12)c1csc(N)n1)C(=O)O (some centres unmarked) [Compound 60] | – | – | – | – | – | – | – | – | – | – | – | – | – | – | – | – | – | – | – | 8 (≈ 11.9 µM) | MIC90 (A. baumannii 49; [16]): > 128 µg/mL; MIC90 (A. baumannii 52; 52): 128 µg/mL (≈ 190 µM); MIC90 [1, 17]: 1 µg/mL (≈ 1.48 µM); MIC90 (E. cloacae β19): 0.5 µg/mL (≈ 0.741 µM); MIC90 (E. coli AG100; AG100): 0.125 µg/mL (≈ 0.185 µM); MIC90 (E. coli β4): 0.25 µg/mL (≈ 0.371 µM); MIC90 (K. pneumoniae 2011E): 0.25 µg/mL (≈ 0.371 µM); MIC90 (K. pneumoniae β10): 0.5 µg/mL (≈ 0.741 µM); MIC90 (K. pneumoniae β11): 64 µg/mL (≈ 94.9 µM); MIC90 (K. pneumoniae β13): 0.5 µg/mL (≈ 0.741 µM); MIC90 (K. pneumoniae β14): 0.5 µg/mL (≈ 0.741 µM); MIC90 (K. pneumoniae β9): 1 µg/mL (≈ 1.48 µM); MIC90 (M. catarrhalis 2524; 2524): < 0.0625 µg/mL; MIC90 (P. aeruginosa 1912E): 2 µg/mL (≈ 2.96 µM); MIC90 (P. aeruginosa 37): 32 µg/mL (≈ 47.4 µM); MIC90 (P. aeruginosa 40; Pseudomonas aeruginosa, 40): 8 µg/mL (≈ 11.9 µM); MIC90 (P. aeruginosa 43; 43): 64 µg/mL (≈ 94.9 µM); MIC90 (P. aeruginosa 6065Y; 6065Y): 16 µg/mL (≈ 23.7 µM)

Continued, in another order:

MIC90 (A. baumannii 46; [2]) [µg/mL] | MIC90 (A. baumannii 49; [3]) [µg/mL] | MIC90 (A. baumannii 52; [4]) [µg/mL] | MIC90 [1, 5] [µg/mL] | MIC90 (E. cloacae β19; read-out: MIC90) [µg/mL] | MIC90 (E. coli AG100; [6]) [µg/mL] | MIC90 (E. coli β4; read-out: MIC90) [µg/mL] | MIC90 (K. pneumoniae 2011E; [7]) [µg/mL] | MIC90 (K. pneumoniae β10; [8]) [µg/mL] | MIC90 (K. pneumoniae β11; [9]) [µg/mL] | MIC90 (K. pneumoniae β13; [10]) [µg/mL] | MIC90 (K. pneumoniae β14; read-out: MIC90) [µg/mL] | MIC90 (K. pneumoniae β9; [11]) [µg/mL] | MIC90 (M. catarrhalis 2524; [12]) [µg/mL] | MIC90 (P. aeruginosa 1912E; read-out: MIC90) [µg/mL] | MIC90 (P. aeruginosa 37; read-out: MIC90) [µg/mL] | MIC90 (P. aeruginosa 40; [13]) [µg/mL] | MIC90 (P. aeruginosa 43; [14]) [µg/mL] | MIC90 (P. aeruginosa 6065Y; read-out: MIC90) [µg/mL] | SMILES | MIC90 (A. baumannii 46; [15]) [µg/mL] | further results
0.5 (≈ 0.636 µM) | > 128 | > 128 | 0.5 (≈ 0.636 µM) | 2 (≈ 2.55 µM) | < 0.0625 | 1 (≈ 1.27 µM) | 0.125 (≈ 0.159 µM) | 0.125 (≈ 0.159 µM) | > 128 | 0.25 (≈ 0.318 µM) | 64 (≈ 81.4 µM) | 1 (≈ 1.27 µM) | 0.5 (≈ 0.636 µM) | 0.25 (≈ 0.318 µM) | 0.25 (≈ 0.318 µM) | < 0.0625 | 0.25 (≈ 0.318 µM) | 0.25 (≈ 0.318 µM) | C[C@H](O/N=C(\C(=O)N[C@@H]1C(=O)N2C(C(=O)[O-])=C(/C=C/C[n+]3cnc(N)c(NCCNC(=O)c4cc(=O)c(O)cn4O)c3)CSC12)c1csc(N)n1)C(=O)O (some centres unmarked) [Compound 9] | – | –
4 (≈ 4.83 µM) | > 128 | > 128 | 1 (≈ 1.21 µM) | 4 (≈ 4.83 µM) | 0.25 (≈ 0.302 µM) | 0.25 (≈ 0.302 µM) | 2 (≈ 2.42 µM) | 0.25 (≈ 0.302 µM) | 64 (≈ 77.3 µM) | < 0.0625 | 8 (≈ 9.66 µM) | 0.25 (≈ 0.302 µM) | 1 (≈ 1.21 µM) | 1 (≈ 1.21 µM) | 8 (≈ 9.66 µM) | 1 (≈ 1.21 µM) | 1 (≈ 1.21 µM) | 2 (≈ 2.42 µM) | CC(C)(O/N=C(\C(=O)N[C@@H]1C(=O)N2C(C(=O)[O-])=C(/C=C/C[n+]3cnc(N)c(NC(=O)CCNC(=O)c4cc(=O)c(O)cn4O)c3)CSC12)c1csc(N)n1)C(=O)O (some centres unmarked) [Compound 12] | – | –
